Reference: paper PMC9995496, “A screen for MeCP2-TBL1 interaction inhibitors using a luminescence-based assay” (Scientific Reports, 2023)
Structures can show the parent of a compound that is named as a salt. Where two headings read alike, the source gives them in different places.

Tested on: PRKACA-PRKAR2A interaction (SmBiT-PRKACA / LgBiT-PRKAR2A), protein kinase A
Design: NanoLuc complementation counter-screen in cell extract, PRKACA with PRKAR2A, loss of luminescence, detects NanoLuc interference
Conditions: 0.5 h, 20 µM, inhibitor
[1] = counter-screen for NanoLuc interference
[2] = counter-screen for NanoLuc interference, Inh (PKA)

Row | SMILES | Inh (PKA) [1] | also measured
1 | Fc1cc(F)c2c(c1)[C@H]1C=CC[C@H]1C(c1cccnc1)N2 (mixture of isomers) [UM0142231:01, Golgicide A] | 20.05% | 
2 | CC(=O)N1CCN(c2ccc(OC[C@@H]3CO[C@@](Cn4ccnc4)(c4ccc(Cl)cc4Cl)O3)cc2)CC1 (racemic) [UM0118636:05, Ketoconazole] | 5.554% | 
3 | CC1COC2(CCN(c3nc(=O)c4cc(C(F)(F)F)cc([N+](=O)[O-])c4s3)CC2)O1 (racemic) [UM0141871:01, BTZ043 Racemate] | 1.801% | 
4 | O=C(O)c1ccccc1O [UM0038620:02, Salicylic acid] | 0.4961% | 
5 | OC[C@@H](O)[C@@H](O)[C@@H](O)CO [UM0050273:04, Ribitol] | 0.444% | 
6 | OC[C@@H](O)[C@H](O)[C@@H](O)CO [UM0050273:05, Xylitol] | -1.935% | 
7 | COC(=O)C1=CCCN(C)C1 [UM0053253:04, Arecoline hydrobromide] |  | Inh (PKA): -0.2973%
8 | CN(C)NC(=O)CCC(=O)O [UM0056235:02, Daminozide] |  | Inh (PKA): 2.677%
9 | CN(C)CCC=C1c2ccccc2CCc2ccccc21 [UM0118081:03, Amitriptyline HCl] | 6.05% | 
10 | CCCCC(CC)CNC(=N)NC(=N)NCCCCCCNC(=N)NC(=N)NCC(CC)CCCC (stereo not shown) [UM0118099:03, Alexidine dihydrochloride] | 24.16% | 
11 | O=C(O)Cc1ccccc1Nc1c(Cl)cccc1Cl [UM0118146:04, Diclofenac Sodium] |  | Inh (PKA) [2]: 5.073%
12 | Cn1c(=O)c2[nH]cnc2n(C)c1=O [UM0118147:03, Aminophylline] | 0.6753% | 
13 | C=C(C)[C@@H]1CC[C@]2(C(=O)O)CC[C@]3(C)[C@H](CC[C@@H]4[C@@]5(C)CC[C@H](O)C(C)(C)[C@@H]5CC[C@]43C)[C@@H]12 [UM0118149:03, Betulinic acid] | 14.84% | 
14 | C[C@H](CS)C(=O)N1CCC[C@H]1C(=O)O [UM0118157:03, Captopril] | 5.226% | 
15 | OCCN(CCO)c1nc(N2CCCCC2)c2nc(N(CCO)CCO)nc(N3CCCCC3)c2n1 [UM0118197:03, Dipyridamole] | 27.31% | 
16 | NCC1(CC(=O)O)CCCCC1 [UM0118203:03, Gabapentin] |  | Inh (PKA) [2]: 0.7345%
17 | CCN(CC)C(=S)SSC(=S)N(CC)CC [UM0118234:04, Disulfiram] | 21.36% | 
18 | CC[N+](C)(C)c1cccc(O)c1 [UM0118243:03, Edrophonium (chloride)] | -0.559% | 
19 | CC(C)C(=O)Nc1ccc([N+](=O)[O-])c(C(F)(F)F)c1 [UM0118278:03, Flutamide] | 16.36% | 
20 | CC[N+](CC)(CC)CCOc1cccc(OCC[N+](CC)(CC)CC)c1OCC[N+](CC)(CC)CC [UM0118287:03, Gallamine Triethiodide] | 0.3342% | 
21 | COc1ccc2c(c1)[nH]c1c(C)nccc12 [UM0118303:03, Harmine hydrochloride] | 2.69% | 
22 | COC(=O)Nc1nc2cc(C(=O)c3cccs3)ccc2[nH]1 [UM0118368:03, Nocodazole] | 9.707% | 
23 | C1CCc2nnnn2CC1 [UM0118375:03, Pentylenetetrazole] | -0.7973% | 

Now from value to compound, other results behind:

Row | Inh (PKA) [1] | SMILES | also measured
24 | 3.79% | O[C@@H](CNC[C@H](O)[C@H]1CCc2cc(F)ccc2O1)[C@@H]1CCc2cc(F)ccc2O1 (racemic) [UM0142211:01, Nebivolol] | 
25 | 43.9% | O=C1NC(=O)C(=Cc2ccc(-c3ccc(F)cc3)o2)S1 (stereo in doubt) [UM0142434:01, CAY10505] | 
26 | 9.078% | CN(C)Cc1cccc(N/C(=C2\C(=O)Nc3cc(C(=O)N(C)C)ccc32)c2ccccc2)c1 [BIX02189] | 
27 | 14.65% | Oc1ccc(Nc2nc(-c3ccc(Cl)cc3)cs2)cc1 [UM0013692:02, SKI II] | 
28 | 10.87% | O=C(Oc1cc(S(=O)(=O)c2ccccc2)ccc1[N+](=O)[O-])c1ccc(Cl)cc1 [UM0041523:03, BTB06584] | 
29 | 16.45% | COc1cc2ncnc(Nc3cccc(Cl)c3)c2cc1OC [UM0044591:06, AG-1478] | 
30 | -0.07908% | COc1ccc2[nH]c([S+]([O-])Cc3ncc(C)c(OC)c3C)nc2c1 (stereo not shown) [UM0048901:05, Omeprazole] | 
31 | 23.18% | Oc1c2ccccc2c2c3c(cccc13)N=N2 [UM0051399:06, SP 600125] | 
32 | 1.648% | Cn1c(=O)c2c(ncn2CC(O)CO)n(C)c1=O (stereo not shown) [UM0052188:04, Dyphylline] | 
33 | 77.71% | CC(C)(C)c1cc(C(=O)/C(C#N)=N/Nc2cccc(Cl)c2)no1 [UM0055456:02, ESI-09] | 
34 | 7.48% | O=C(O)CCc1nc(-c2ccccc2)c(-c2ccccc2)o1 [UM0056108:04, Oxaprozin] | 
35 | 10.75% | CCOC(=O)c1ccc(NC2CCCCC2)c(N)c1 [UM0065946:02, Ferrostatin-1 (Fer-1)] | 
36 | 12.95% | CC(=O)Nc1ccc(NC(=S)NC(=O)c2ccc(C(C)(C)C)cc2)cc1 [UM0075879:02, Tenovin-1] | 
37 | 2.953% | CCN(CC)CCOC(=O)C(c1ccccc1)c1ccccc1 [UM0118069:03, Adiphenine HCl] | 
38 | 17.63% | COc1ccc(C(Cl)=C(c2ccc(OC)cc2)c2ccc(OC)cc2)cc1 [UM0118083:03, Chlorotrianisene] | 
39 | 15.72% | CN(C)CCCN1c2ccccc2Sc2ccc(Cl)cc21 [UM0118114:03, Chlorpromazine HCl] | 
40 | 16.35% | Cc1oncc1C(=O)Nc1ccc(C(F)(F)F)cc1 [UM0118141:03, Leflunomide] | 
41 | 14.38% | CCCC(C(=O)OCCN(CC)CC)(c1ccccc1)c1ccccc1 [UM0118177:04, SKF 525A (hydrochloride)] | 
42 | 3.952% | CN(C)CCCN1c2ccccc2CCc2ccccc21 [UM0118324:03, Imipramine (hydrochloride)] | 
43 | 8.731% | COC(=O)Nc1nc2cc(C(=O)c3ccccc3)ccc2[nH]1 [UM0118348:03, Mebendazole] | 
44 | -1.159% | COc1ccc2[nH]cc(CCNC(C)=O)c2c1 [UM0118349:03, Melatonin] | 
45 | 4.028% | CNCCC=C1c2ccccc2CCc2ccccc21 [UM0118370:03, Nortriptyline (hydrochloride)] | 
46 | -0.007894% | C#CCN(C)Cc1ccccc1 [UM0118374:03, Pargyline (hydrochloride)] | 
47 | 11.2% | O=c1[nH]c2ccccc2n1C1CCN(CCCC(c2ccc(F)cc2)c2ccc(F)cc2)CC1 [UM0118378:03, Pimozide] | 
48 | -1.554% | Cc1ncc(C[n+]2csc(CCO)c2C)c(N)n1 [UM0118406:03, Thiamine HCl (Vitamin B1)] | 
49 | 2.527% | Nc1ccc(S(=O)(=O)Nc2ccnn2-c2ccccc2)cc1 [UM0118414:03, Sulfaphenazole] | 
